The NIST ThermoML archive (doi:10.1021/je300111m)
Where “and” joins values, the source holds several entries; their conditions need not be identical. Equal values may be shown once. ± gives the expanded uncertainty stated by the source.

Details: Liquid

Structure (SMILES): CCCC [butane]
- vapor or sublimation pressure (243.03 K): 29.1 ± 0.5 kPa
- vapor or sublimation pressure (293.38 K): 210.8 ± 3.5 kPa

Structure (SMILES): S [hydrogen sulfide]
- vapor or sublimation pressure (222.83 K): 167.3 ± 2.8 kPa
- vapor or sublimation pressure (243.02 K): 384 ± 6.2 kPa
- vapor or sublimation pressure (243.18 K): 380.2 ± 6.2 kPa
- vapor or sublimation pressure (243.2 K): 379.4 ± 6.2 kPa
- vapor or sublimation pressure (273.12 K): 1030.2 ± 17 kPa
- vapor or sublimation pressure (273.13 K): 1029.3 ± 17 kPa
- vapor or sublimation pressure (293.43 K): 1793.7 ± 29 kPa

Structure (SMILES): CCC [propane]
- vapor or sublimation pressure (243.23 K): 168 ± 2.8 kPa and 168.2 ± 2.8 kPa
- vapor or sublimation pressure (273.12 K): 473.5 ± 7.7 kPa
